Assays:
thrombus formation = settings: dispersed in a silicone rubber matrix; cited from earlier work
[1] = donor and its diamine precursor; back react to potentially toxic nitrosamines; cited from earlier work
[2] = for t1/2 ("apparent" t1/2 and t1/2): buffer, pH 7.4; for k: first order decomposition, PBS buffer, pH 7.4, 37° C., n > 3
Text: UV-vis spectra were monitored on a Beckman DU 640B spectrophotometer.

[3] = Thermal gravimetric analysis under nitrogen (thermal stability of diazeniumdiolates); type: physicochemical; settings: nitrogen atmosphere
[4] = NO release from polymer films/coatings containing NO donor in PBS buffer at 37° C. by chemiluminescence; type: physicochemical; settings: ~5 wt. % in PVC film plasticized with DOS (1:2), PBS buffer, 37° C., no KTpClPB
Procedure: Thermal stability of diazeniumdiolates. […] Kinetics. […] Use in Hydrophobic Systems.
In the absence of the KTpClPB, NO release decreases dramatically after approximately 1 hour. […] The decrease in NO release observed is believed to result from an increase in the pH within the organic polymer film, which decreases the decomposition rate of lipophilic diazeniumdiolates. As water diffuses into the film initiating NO release, secondary amine sites result. The secondary amine sites have a higher pKa than water and therefore deprotonate water to form hydroxide ions. The basic microdomain environment that results within the polymer, in turn, slows further decomposition of the remaining diazeniumdiolates that would generate NO. This retardation may occur as a result of the organic ammonium hydroxide microphases within the polymer, which in turn serves to stabilize the remaining diazeniumdiolates.
FT-IR were collected on Perken Elmer Spectrum VX. […] Elemental analyses were performed. Reagents. […] NO was purchased from Matheson Gases. […] General NO Addition Procedure. […] The products were finally collected and dried under vacuum. Molar Extinction Coefficients. […] The maximum wavelength and absorbance were collected. […] Kinetics Studies. […] The NO released was measured using chemiluminescence. […] Preparation of Polymer Films Containing Diazeniumdiolates. […] The membranes were covered and allowed to cure overnight. […] Polymerization to Form Boc-protected Diamine Copolymer.
General Procedure for Deprotection to Form Diamine Copolymer (c). 35 mg of the copolymer (b) was dissolved in 2 mL of dichloromethane and then 200 μL of TFA (trifluoroacetic acid) was added dropwise. The solution was stirred at room temperature for about 3 hours. The reaction mixture was diluted with 20 mL of dichloromethane, and the organic phase was then washed with sodium bicarbonate, water, and brine, and was dried with sodium sulfate. The solvent was evaporated and the resulting copolymer was dried under vacuum overnight. ^1H-NMR was performed to confirm the structure and actual composition of the copolymer. General Procedure for NO Loading to Form Polymer-Based NO Donor (d). 20 mg of the deprotected copolymer (c) was dissolved in 3 mL of dry THF and placed in a high pressure reactor with a stirring bar, and flushed with argon for about 10 minutes. 100% excess of sodium methoxide (with respect to free amine sites) was added and the reactor was closed. The reactor was purged with argon again for several times (e.g. ten times) over a 1 hour period and was charged with NO at 80 psi. The reaction mixture was stirred for 72 hours at room temperature. After the reaction was complete, the copolymer was precipitated with dry hexane under argon. The remaining solvent was removed using a vacuum, and the diazeniumdiolated copolymers (d) were examined by UV-Vis spectrum as well as NOA. This resulting copolymer was stored in sealed vials charged with argon in a freezer. Preparation of Polymer Films Containing Polymer-Based No Donor. Polymer membranes containing the polymer-based NO donor was prepared by dissolving 60.8 mg poly(vinyl chloride) (PVC), 30.4 mg dioctyl sebacate (DOS), and 9.1 mg poly(lactide-co-glycolide) (50:50) (PLGA 50:50) in 1.5 mL of freshly distilled tetrahydrofuran. […] A trilayer film configuration is employed to fabricate films. […] Four hours later the polymer cocktail was cast on top of the PVC layer. After another 4 hours, the PVC solution was cast again as a finish layer. The membrane was covered and allowed to cure overnight. Polymer films containing no additives were prepared in a similar manner. […] NO Release Measurements by Chemiluminescence. All NO measurements were performed using a Sievers Nitric Oxide Analyzer (NOA), model 280. The instrument was calibrated before each experiment using an internal two-point calibration (zero gas and 45 PPM). The flow rate was set to 200 mL/min with a cell pressure of 5.4 torr and an oxygen pressure of 6.0 psig. […]

platelet activity = settings: within a polymer coating on the inner walls of extracorporeal circuits; cited from earlier work
[5] = Air stability of isolated intramolecular diazeniumdiolates; type: physicochemical
Procedure: The reaction of NO with 1f yielded a diazeniumdiolate (as determined by UV) that was initially air-stable, but decomposed after 12 hours even with storage at −20° C. […] Thus, the most air-stable intramolecular diazeniumdiolate that could be isolated was that of diamine 1e. Air stable bis-diazeniumdiolates of 1f and 1g may, however, be prepared when an exogenous base such as sodium methoxide is present in the reaction mixture.

[6] = test system: cells after vascular injury; settings: cited from earlier work
[7] = in vivo; cited from earlier work

## CNCCCCCCN(C)/[N+]([O-])=N/O [Compound 2a, (Z)-1-[N-methyl-N-[6-(N-methylammoniohexyl)amino]]-diazen-1-ium-1,2-diolate]
Thrombus formation
  effect on thrombus formation: prevent thrombus formation on the surface of intravascular sensors
[1]
  leaching from polymer matrix: tend to leach from the surface of the polymer matrix
[2]
  t1/2 ("apparent" t1/2 and t1/2): 1.12 ± 0.012 min
  k: 0.010 ± 0.0001 s⁻¹
[3]
  TNO loss (stable up to): 104 °C
[4]
  total NO release profile from film without additive: releases all of its NO in a short period of time
Platelet activity
  effect on platelet activity: greatly reduce platelet activity

## CCCNCCCCCCN(CCC)/[N+]([O-])=N/O [Compound 2c, (Z)-1-{N-Propyl-N-[6-(N-propylammoniohexyl)amino]}-diazen-1-ium-1,2-diolate]
[2]
  t1/2 ("apparent" t1/2 and t1/2): 5.32 ± 0.383 min
  k: 0.0022 ± 0.0001 s⁻¹
[3]
  TNO loss (stable up to): 104 °C

## CCCCCCCCCCCCN(CCCCCCN)CCCCCCCCCCCC [Compound 1g, N,N-didodecylhexamethylene diamine]
[5]; presence of oxygen during the work-up procedure
  air stability during work-up: immediately decomposes

## NCCN(CCN)/[N+]([O-])=N/O [DETA/NO]
[6]
  effect on cell proliferation after vascular injury: substantially suppress overproliferation of cells after vascular injury

## CCCCCCN(CCCCCC)CCCCCCN [Compound 1f, N,N-dihexylhexamethylene diamine]
[5]; even with storage at −20° C.
  time to decomposition of the initially air-stable diazeniumdiolate: 12 h

## CCNCCCCCCN(CC)/[N+]([O-])=N/O [Compound 2b, (Z)-1-{N-Ethyl-N-[6-(N-ethylammoniohexyl)amino]}diazen-1-ium-1,2-diolate]
[2]
  t1/2 ("apparent" t1/2 and t1/2): 5.78 ± 0.433 min
  k: 0.0020 ± 0.0001 s⁻¹
[3]
  TNO loss (stable up to): 104 °C

## CCCCCNCCCCCCN(CCCCC)/[N+]([O-])=N/O [Compound 2e, (Z)-1-{N-Pentyl-N-[6-(N-pentylammoniohexyl)amino]}-diazen-1-ium-1,2-diolate]
[2]
  t1/2 ("apparent" t1/2 and t1/2): 4.65 ± 0.517 min
  k: 0.0025 ± 0.0001 s⁻¹
[3]
  TNO loss (stable up to): 104 °C

## O=C([O-])C1CCCN1[N+]([O-])=N[O-].[Na+].[Na+] (centres unmarked) [PROLI/NO]
[7]
  effect when infused into blood: relieve muscle spasms
